Results reported in ChEMBL document CHEMBL6134864, “Discovery of FLT3-ITD Inhibitor Clifutinib: A Novel Biphenylacetylene Urea Derivative in Clinical Trials for the Treatment of Relapsed/Refractory FLT3-ITD+ Acute Myeloid Leukemia” (J Med Chem, 2025).
Activity calls are given as the source filed them. The rule behind the calls is not given here.

Tests used:
[1] = Cmax in dog plasma at 5 mg/kg, po measured up to 24 hrs by LC-MS/MS analysis; format: ADME, organism-based, Canis lupus familiaris
[2] = Half life in dog plasma at 1 mg/kg, iv measured up to 24 hrs by LC-MS/MS analysis; format: ADME, organism-based, Canis lupus familiaris
BaF3 [3] = assay: cells; details: Mus musculus, BaF3, 72 h
Cytochrome P450 2C9 = Cytochrome P450 2C9 (Homo sapiens, UniProt P11712); assay: Inhibition of CYP2C9 in human liver microsomes by UPLC-MS/MS analysis; format: ADME, Microsome
Cytochrome P450 2C9, sequence (P11712 whole entry): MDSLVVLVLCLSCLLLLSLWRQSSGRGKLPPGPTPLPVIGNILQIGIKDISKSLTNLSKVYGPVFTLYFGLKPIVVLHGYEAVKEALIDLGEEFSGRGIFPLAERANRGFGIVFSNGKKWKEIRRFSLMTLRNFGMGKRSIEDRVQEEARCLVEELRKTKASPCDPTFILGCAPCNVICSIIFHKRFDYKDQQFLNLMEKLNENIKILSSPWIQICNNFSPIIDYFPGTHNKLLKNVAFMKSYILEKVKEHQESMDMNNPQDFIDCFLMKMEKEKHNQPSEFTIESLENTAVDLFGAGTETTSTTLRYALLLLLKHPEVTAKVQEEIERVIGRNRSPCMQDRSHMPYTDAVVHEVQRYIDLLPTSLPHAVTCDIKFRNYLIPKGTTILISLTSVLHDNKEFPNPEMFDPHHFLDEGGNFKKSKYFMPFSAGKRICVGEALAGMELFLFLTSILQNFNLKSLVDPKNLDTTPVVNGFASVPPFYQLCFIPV

MOLM-13 [4] = assay: Antitumor activity against human MOLM-13 cells xenografted in NOD/SCID mouse model assessed as tumor growth inhibition at 4.5 mg/kg/day, po by caliper analysis relative to control; format: functional; details: read-out: TGI
MCF7 = assay: cells; details: Homo sapiens, MCF7, 72 h
Description: Antiproliferative activity against human MCF7 cells assessed as inhibition of cell growth incubated for 72 hrs by celltiter-glo luminescent cell viability assay

[5] = Cmax in mouse plasma at 10 mg/kg, po measured up to 24 hrs by LC-MS/MS analysis; format: ADME, organism-based
SK-OV-3 = assay: cells; details: Homo sapiens, SK-OV-3, 72 h
Description: Antiproliferative activity against human SK-OV-3 cells assessed as inhibition of cell growth incubated for 72 hrs by celltiter-glo luminescent cell viability assay

BaF3 [6] = assay: Antiproliferative activity against mouse BaF3 cells harbouring FLT3-D835Y mutant assessed as inhibition of cell growth incubated for 72 hrs by celltiter-glo luminescent cell viability assay; format: functional, cell-based; details: BaF3, 72 h
[7] = Tmax in NOD/SCID mouse plasma xenografted with human MV4-11 cells at […], po measured up to 24 hrs by LC-MS/MS analysis; format: ADME, organism-based; details: dose 1.5 mg/kg
[8] = AUC (0 to t) in NOD/SCID mouse plasma xenografted with human MV4-11 cells at 4.5 mg/kg, po measured up to 24 hrs by LC-MS/MS analysis; format: ADME, organism-based
[9] = Tmax in mouse plasma at 10 mg/kg, po measured up to 24 hrs by LC-MS/MS analysis; format: ADME, organism-based
[10] = Tmax in NOD/SCID mouse tumor xenografted with human MV4-11 cells at 0.5 mg/kg, po measured up to 24 hrs by LC-MS/MS analysis; format: ADME, organism-based, Neoplasm
[11] = Half life in mouse plasma at 10 mg/kg, po measured up to 24 hrs by LC-MS/MS analysis; format: ADME, organism-based
BaF3 [12] = assay: cells; details: Mus musculus, BaF3, 72 h; remark: listed apart in the source
[13] = Cmax in monkey plasma at 5 mg/kg, po measured up to 24 hrs by LC-MS/MS analysis; format: ADME, organism-based, Macaca mulatta; details: rhesus monkey
[14] = target: Proto-oncogene tyrosine-protein kinase receptor Ret (Homo sapiens, UniProt P07949); assay: Inhibition of human RET by biochemical kinase binding assay
Proto-oncogene tyrosine-protein kinase receptor Ret, sequence (P07949 whole entry): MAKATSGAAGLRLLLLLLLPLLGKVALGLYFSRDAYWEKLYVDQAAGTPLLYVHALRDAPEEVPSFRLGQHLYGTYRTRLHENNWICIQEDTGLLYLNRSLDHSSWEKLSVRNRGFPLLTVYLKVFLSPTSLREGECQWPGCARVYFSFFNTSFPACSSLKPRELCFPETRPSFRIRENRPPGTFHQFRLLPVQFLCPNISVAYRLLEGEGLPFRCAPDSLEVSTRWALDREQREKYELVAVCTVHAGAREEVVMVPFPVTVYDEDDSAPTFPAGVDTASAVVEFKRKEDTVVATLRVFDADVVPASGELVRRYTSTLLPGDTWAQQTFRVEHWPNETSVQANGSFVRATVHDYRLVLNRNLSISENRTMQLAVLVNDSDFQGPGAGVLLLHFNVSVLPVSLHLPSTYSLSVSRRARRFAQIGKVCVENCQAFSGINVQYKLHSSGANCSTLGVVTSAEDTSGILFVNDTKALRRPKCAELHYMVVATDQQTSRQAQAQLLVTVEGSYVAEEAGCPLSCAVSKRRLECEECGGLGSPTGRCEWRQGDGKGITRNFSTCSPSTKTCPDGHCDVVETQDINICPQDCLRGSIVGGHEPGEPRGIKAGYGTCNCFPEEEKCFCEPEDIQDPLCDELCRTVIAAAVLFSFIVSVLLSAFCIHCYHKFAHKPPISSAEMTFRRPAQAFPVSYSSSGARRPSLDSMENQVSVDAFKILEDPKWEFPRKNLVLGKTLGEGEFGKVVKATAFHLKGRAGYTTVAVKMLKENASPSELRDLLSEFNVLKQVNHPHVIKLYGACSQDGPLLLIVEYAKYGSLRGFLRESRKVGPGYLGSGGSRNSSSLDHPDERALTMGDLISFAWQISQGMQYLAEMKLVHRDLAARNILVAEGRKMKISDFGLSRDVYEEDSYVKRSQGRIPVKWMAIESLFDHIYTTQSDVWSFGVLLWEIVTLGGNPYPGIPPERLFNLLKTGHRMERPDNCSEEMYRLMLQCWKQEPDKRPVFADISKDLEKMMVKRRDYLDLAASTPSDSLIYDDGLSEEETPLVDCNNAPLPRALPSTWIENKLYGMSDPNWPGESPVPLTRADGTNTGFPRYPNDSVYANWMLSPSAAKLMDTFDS

[15] = Half life in mouse plasma at 2 mg/kg, iv measured up to 24 hrs by LC-MS/MS analysis; format: ADME, organism-based
MOLM-13 [16] = assay: Antitumor activity against human MOLM-13 cells xenografted in NOD/SCID mouse model assessed as tumor growth inhibition at 0.5 mg/kg/day, po by caliper analysis relative to control; format: functional; details: read-out: TGI
BaF3 [17] = assay: Antiproliferative activity against mouse BaF3 cells harbouring FLT3-ITD-D835Y mutant assessed as inhibition of cell growth incubated for 72 hrs by celltiter-glo luminescent cell viability assay; format: functional, cell-based; details: BaF3, 72 h
BaF3 [18] = assay: Antiproliferative activity against mouse BaF3 cells harbouring FLT3-ITD-D835I mutant assessed as inhibition of cell growth incubated for 72 hrs by celltiter-glo luminescent cell viability assay; format: functional, cell-based; details: BaF3, 72 h
[19] = tested on: Receptor-type tyrosine-protein kinase FLT3 (Homo sapiens), P36888 [UNDEFINED MUTATION]; assay: Inhibition of FLT3 in human MV4-11 cells harbouring FLT3-ITD mutant assessed as effect on ERK protein level at 1 to 1000 nM measured after 2 hrs by Western blot analysis; format: cell-based; details: dose 1-1000 nM
Receptor-type tyrosine-protein kinase FLT3 (Homo sapiens), P36888 [UNDEFINED MUTATION], sequence (P36888 whole entry, looked up, change not shown): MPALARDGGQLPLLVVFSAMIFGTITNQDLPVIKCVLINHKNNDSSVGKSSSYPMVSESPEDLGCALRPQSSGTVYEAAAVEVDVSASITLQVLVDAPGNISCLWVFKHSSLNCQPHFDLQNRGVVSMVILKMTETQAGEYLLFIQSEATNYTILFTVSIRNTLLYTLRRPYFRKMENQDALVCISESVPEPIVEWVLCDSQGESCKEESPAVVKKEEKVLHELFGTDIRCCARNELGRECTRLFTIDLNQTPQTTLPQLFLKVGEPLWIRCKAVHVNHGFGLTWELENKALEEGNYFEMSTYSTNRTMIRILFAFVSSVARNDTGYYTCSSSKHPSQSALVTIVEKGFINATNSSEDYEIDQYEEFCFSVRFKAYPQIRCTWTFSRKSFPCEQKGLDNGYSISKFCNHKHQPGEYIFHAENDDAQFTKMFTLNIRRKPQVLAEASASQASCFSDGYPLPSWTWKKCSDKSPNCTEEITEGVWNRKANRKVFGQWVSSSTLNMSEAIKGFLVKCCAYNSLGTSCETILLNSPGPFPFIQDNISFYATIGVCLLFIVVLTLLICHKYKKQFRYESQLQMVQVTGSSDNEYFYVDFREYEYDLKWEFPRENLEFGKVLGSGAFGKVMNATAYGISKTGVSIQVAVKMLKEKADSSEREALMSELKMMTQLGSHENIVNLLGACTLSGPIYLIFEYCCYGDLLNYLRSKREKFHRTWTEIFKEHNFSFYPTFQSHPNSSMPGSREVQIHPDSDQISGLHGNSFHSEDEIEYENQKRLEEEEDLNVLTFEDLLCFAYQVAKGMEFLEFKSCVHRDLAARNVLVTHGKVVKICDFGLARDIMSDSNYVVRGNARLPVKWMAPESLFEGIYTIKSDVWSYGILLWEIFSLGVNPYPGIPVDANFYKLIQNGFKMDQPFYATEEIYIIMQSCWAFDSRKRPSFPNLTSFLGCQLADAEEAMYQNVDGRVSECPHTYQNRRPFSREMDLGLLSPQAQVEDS

[20] = Clearance in monkey plasma at 1 mg/kg, iv measured up to 24 hrs by LC-MS/MS analysis; format: ADME, organism-based, Macaca mulatta; details: rhesus monkey
[21] = Cmax in rat plasma at 5 mg/kg, po measured up to 24 hrs by LC-MS/MS analysis; format: ADME, organism-based
Cytochrome P450 3A4 = Cytochrome P450 3A4 (Homo sapiens, UniProt P08684); assay: Inhibition of CYP3A4 in human liver microsomes by UPLC-MS/MS analysis; format: ADME, Microsome
Cytochrome P450 3A4, sequence (P08684 whole entry): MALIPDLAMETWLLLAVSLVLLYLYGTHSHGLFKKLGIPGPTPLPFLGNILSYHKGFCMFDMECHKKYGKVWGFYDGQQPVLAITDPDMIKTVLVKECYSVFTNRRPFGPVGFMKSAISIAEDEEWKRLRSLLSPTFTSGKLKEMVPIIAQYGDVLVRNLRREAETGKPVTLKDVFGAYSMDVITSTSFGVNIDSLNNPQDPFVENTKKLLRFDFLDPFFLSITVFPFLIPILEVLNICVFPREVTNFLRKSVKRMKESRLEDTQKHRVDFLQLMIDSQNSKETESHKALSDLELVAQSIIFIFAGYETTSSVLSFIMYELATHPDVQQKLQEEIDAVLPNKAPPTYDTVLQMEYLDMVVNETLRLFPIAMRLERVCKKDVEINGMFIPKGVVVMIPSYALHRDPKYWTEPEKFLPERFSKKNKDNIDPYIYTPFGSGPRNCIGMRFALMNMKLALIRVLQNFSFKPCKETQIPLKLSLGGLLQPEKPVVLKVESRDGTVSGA

DU-145 = assay: cells; details: Homo sapiens, DU-145, 72 h
Description: Antiproliferative activity against human DU-145 cells assessed as inhibition of cell growth incubated for 72 hrs by celltiter-glo luminescent cell viability assay

BaF3 [22] = assay: Antiproliferative activity against mouse BaF3 cells harbouring FLT3-ITD-F691L mutant assessed as inhibition of cell growth incubated for 72 hrs by celltiter-glo luminescent cell viability assay; format: functional, cell-based; details: BaF3, 72 h
OVCAR-3 = assay: cells; details: Homo sapiens, OVCAR-3, 72 h
Description: Antiproliferative activity against human OVCAR-3 cells assessed as inhibition of cell growth incubated for 72 hrs by celltiter-glo luminescent cell viability assay

Cytochrome P450 2C8 = Cytochrome P450 2C8 (Homo sapiens, UniProt P10632); assay: Inhibition of CYP2C8 in human liver microsomes by UPLC-MS/MS analysis; format: ADME, Microsome
Cytochrome P450 2C8, sequence (P10632 whole entry): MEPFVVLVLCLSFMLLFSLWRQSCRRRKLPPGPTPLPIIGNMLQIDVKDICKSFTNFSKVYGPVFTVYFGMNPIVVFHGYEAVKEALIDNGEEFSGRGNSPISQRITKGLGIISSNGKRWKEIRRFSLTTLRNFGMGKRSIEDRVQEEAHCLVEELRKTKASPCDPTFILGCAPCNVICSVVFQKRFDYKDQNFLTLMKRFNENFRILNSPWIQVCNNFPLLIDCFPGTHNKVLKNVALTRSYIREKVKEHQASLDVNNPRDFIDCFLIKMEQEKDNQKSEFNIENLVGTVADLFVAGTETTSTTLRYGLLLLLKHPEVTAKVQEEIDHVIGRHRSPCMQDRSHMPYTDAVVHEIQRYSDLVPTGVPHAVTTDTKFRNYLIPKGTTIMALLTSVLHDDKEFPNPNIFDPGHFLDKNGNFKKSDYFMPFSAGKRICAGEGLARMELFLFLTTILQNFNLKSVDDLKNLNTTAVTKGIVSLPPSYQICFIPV

[23] = AUC (0 to t) in NOD/SCID mouse plasma xenografted with human MV4-11 cells at 0.5 mg/kg, po measured up to 24 hrs by LC-MS/MS analysis; format: ADME, organism-based
[24] = AUC last in monkey plasma at 1 mg/kg, iv measured up to 24 hrs by LC-MS/MS analysis; format: ADME, organism-based, Macaca mulatta; details: rhesus monkey, in vivo
[25] = Half life in rat plasma at 5 mg/kg, po measured up to 24 hrs by LC-MS/MS analysis; format: ADME, organism-based
[26] = Toxicity in NOD/SCID mouse assessed as effect on body weight at 20 mg/kg/day, po measured for 7 days; format: organism-based; details: in vivo, 168 h, time 7 day
Cytochrome P450 2C19 = Cytochrome P450 2C19 (Homo sapiens, UniProt P33261); assay: Inhibition of CYP2C19 in human liver microsomes by UPLC-MS/MS analysis; format: ADME, Microsome
Cytochrome P450 2C19, sequence (P33261 whole entry): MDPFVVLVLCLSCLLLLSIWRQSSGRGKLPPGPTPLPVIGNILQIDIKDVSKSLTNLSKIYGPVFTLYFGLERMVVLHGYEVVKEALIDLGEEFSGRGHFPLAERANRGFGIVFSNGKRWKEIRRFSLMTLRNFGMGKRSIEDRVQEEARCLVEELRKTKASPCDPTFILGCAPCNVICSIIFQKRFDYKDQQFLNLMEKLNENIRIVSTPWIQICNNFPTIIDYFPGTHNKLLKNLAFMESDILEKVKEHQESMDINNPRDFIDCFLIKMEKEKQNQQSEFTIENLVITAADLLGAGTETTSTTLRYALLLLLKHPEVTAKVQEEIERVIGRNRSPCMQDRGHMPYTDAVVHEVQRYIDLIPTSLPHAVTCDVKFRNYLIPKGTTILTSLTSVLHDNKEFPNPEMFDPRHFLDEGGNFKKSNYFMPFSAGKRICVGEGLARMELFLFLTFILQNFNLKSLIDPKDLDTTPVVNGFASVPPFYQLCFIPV

[27] = Half life in NOD/SCID mouse tumor xenografted with human MV4-11 cells at 0.5 mg/kg, po measured up to 24 hrs by LC-MS/MS analysis; format: ADME, organism-based, Neoplasm
COLO 205 = assay: cells; details: Homo sapiens, COLO 205, 72 h
Description: Antiproliferative activity against human COLO 205 cells assessed as inhibition of cell growth incubated for 72 hrs by celltiter-glo luminescent cell viability assay

[28] = Volume of distribution at steady state in monkey plasma at 1 mg/kg, iv measured up to 24 hrs by LC-MS/MS analysis; format: ADME, organism-based, Macaca mulatta; details: rhesus monkey, read-out: Vdss
[29] = Antitumor activity against human […] cells harbouring FLT3-ITD xenografted in NOD/SCID mouse model assessed as tumor regression rate at 1.5 to 4.5 mg/kg/day, po administered for 21 days and measured for 31 days post dose by caliper analysis relative to control; format: functional, MV4-11; details: dose lower […], dose upper 4.5 mg/kg/day, time 52 day
A2780 = assay: cells; details: Homo sapiens, A2780, 72 h
Description: Antiproliferative activity against human A2780 cells assessed as inhibition of cell growth incubated for 72 hrs by celltiter-glo luminescent cell viability assay

MOLM-13 [30] = assay: cells; details: Homo sapiens, MOLM-13, 72 h
Description: Antiproliferative activity against human MOLM-13 cells assessed as inhibition of cell growth incubated for 72 hrs by celltiter-glo luminescent cell viability assay

MOLT-4 = assay: cells; details: Homo sapiens, MOLT-4, 72 h
Description: Antiproliferative activity against human MOLT-4 cells assessed as inhibition of cell growth incubated for 72 hrs by celltiter-glo luminescent cell viability assay

Q: Which Cmax [1] does the source give for `CC(C)(C)c1cc(NC(=O)Nc2ccc(C#Cc3ccc(OCCCN4CCOCC4)cc3)cc2)no1` here?
A: 520 ng/mL

Q: And the half-life [2]?
A: 6.28 h

Q: And the IC50 (BaF3 [3])?
A: 5.8 nM

Q: What about the IC50 (Cytochrome P450 2C9) of the same compound?
A: > 33300 nM

Q: What about the inhibition in vivo at 4.5 mg/kg/day (MOLM-13 [4]) of the same compound?
A: 94%

Q: What about the IC50 (MCF7) of the same compound?
A: > 10000 nM

Q: What about the Cmax [5] of the same compound?
A: 1660 ng/mL

Q: And the IC50 (SK-OV-3)?
A: > 10000 nM

Q: And the IC50 (BaF3 [6])?
A: 5.4 nM

Q: And the Tmax at 24 h [7]?
A: 1 h

Q: And the AUC(0-t) at 24 h [8]?
A: 908 ng·h/mL

Q: And the Tmax [9]?
A: 0.5 h

Q: What about the Tmax [10] of the same compound?
A: 3 h

Q: And the half-life [11]?
A: 1.73 h

Q: And the IC50 (BaF3 [12])?
A: 4.1 nM

Q: And the Cmax [13]?
A: 1410 ng/mL

Q: What about the IC50 [14] of the same compound?
A: 110 nM

Q: What about the half-life [15] of the same compound?
A: 1.17 h

Q: And the inhibition in vivo at 0.5 mg/kg/day (MOLM-13 [16])?
A: 39%

Q: And the IC50 (BaF3 [17])?
A: 47.6 nM

Q: And the IC50 (BaF3 [18])?
A: 302 nM

Q: What about the inhibition [19] of the same compound?
A: inactive

Q: And the clearance [20]?
A: 1.35 mL/min/kg

Q: What about the Cmax [21] of the same compound?
A: 895 ng/mL

Q: And the IC50 (Cytochrome P450 3A4)?
A: > 33300 nM

Q: What about the IC50 (DU-145) of the same compound?
A: > 10000 nM

Q: And the IC50 (BaF3 [22])?
A: 154 nM

Q: What about the IC50 (OVCAR-3) of the same compound?
A: > 10000 nM

Q: What about the IC50 (Cytochrome P450 2C8) of the same compound?
A: > 33300 nM

Q: What about the AUC(0-t) at 24 h [23] of the same compound?
A: 58.9 ng·h/mL

Q: What about the AUClast [24] of the same compound?
A: 10100 ng·h/mL

Q: And the half-life [25]?
A: 4.45 h

Q: And the Activity [26]?
A: Non-toxic

Q: And the IC50 (Cytochrome P450 2C19)?
A: > 33300 nM

Q: What about the half-life [27] of the same compound?
A: 11.3 h

Q: And the IC50 (COLO 205)?
A: > 10000 nM

Q: What about the Vd [28] of the same compound?
A: 0.996 L/kg

Q: And the Activity [29]?
A: 100%

Q: What about the IC50 (A2780) of the same compound?
A: 7200 nM

Q: What about the IC50 (MOLM-13 [30]) of the same compound?
A: 1 nM

Q: What about the IC50 (MOLT-4) of the same compound?
A: > 10000 nM
